Measurements from ChEMBL document CHEMBL3822420, “New peptide deformylase inhibitors design, synthesis and pharmacokinetic assessment” (Bioorg Med Chem Lett, 2016).
In brackets after ≈: the same amount, converted by molar mass.

Assays:
Assay type in all cases: functional
[1] = test system: Staphylococcus epidermidis; assay: Antibacterial activity against methicillin-resistant Staphylococcus epidermidis 14-4
[2] = test system: Staphylococcus epidermidis; assay: Antibacterial activity against methicillin-sensitive Staphylococcus epidermidis 14-3
Staphylococcus aureus [3] = assay: Antibacterial activity against methicillin-sensitive Staphylococcus aureus 14-3
[4] = test system: Staphylococcus epidermidis; assay: Antibacterial activity against methicillin-resistant Staphylococcus epidermidis 14-3
Staphylococcus aureus [5] = assay: Antibacterial activity against methicillin-resistant Staphylococcus aureus 14-2
Enterococcus faecalis [6] = assay: Antibacterial activity against Enterococcus faecalis 14-3
Enterococcus faecalis [7] = assay: Antibacterial activity against Enterococcus faecalis 14-5
Staphylococcus aureus [8] = assay: Antibacterial activity against methicillin-resistant Staphylococcus aureus 14-1
Enterococcus faecalis [9] = assay: Antibacterial activity against Enterococcus faecalis 14-1
Escherichia coli [10] = assay: Antibacterial activity against Escherichia coli 14-1 expressing extended-spectrum beta-lactamase
Enterococcus faecalis [11] = assay: Antibacterial activity against Enterococcus faecalis 14-2
Staphylococcus aureus [12] = assay: Antibacterial activity against methicillin-sensitive Staphylococcus aureus 14-1
Escherichia coli [13] = assay: Antibacterial activity against Escherichia coli 14-2 expressing extended-spectrum beta-lactamase
Staphylococcus aureus [14] = assay: Antibacterial activity against methicillin-resistant Staphylococcus aureus 14-5
Staphylococcus aureus [15] = assay: Antibacterial activity against methicillin-sensitive Staphylococcus aureus 14-2
[16] = test system: Staphylococcus epidermidis; assay: Antibacterial activity against methicillin-resistant Staphylococcus epidermidis 14-1
Staphylococcus aureus [17] = assay: Antibacterial activity against methicillin-sensitive Staphylococcus aureus 14-4
[18] = test system: Staphylococcus epidermidis; assay: Antibacterial activity against methicillin-resistant Staphylococcus epidermidis 14-2
[19] = test system: Staphylococcus epidermidis; assay: Antibacterial activity against methicillin-sensitive Staphylococcus epidermidis 14-1
[20] = test system: Staphylococcus epidermidis; assay: Antibacterial activity against methicillin-sensitive Staphylococcus epidermidis 14-2
Staphylococcus aureus [21] = assay: Antibacterial activity against methicillin-resistant Staphylococcus aureus 14-4
Escherichia coli [22] = assay: Antibacterial activity against Escherichia coli 14-2
Escherichia coli [23] = assay: Antibacterial activity against Escherichia coli 14-1

SMILES	MIC [1] [µg/mL]	MIC [2] [µg/mL]	MIC (Staphylococcus aureus [3]) [µg/mL]	MIC [4] [µg/mL]	MIC (Staphylococcus aureus [5]) [µg/mL]	MIC (Enterococcus faecalis [6]) [µg/mL]	MIC (Enterococcus faecalis [7]) [µg/mL]	MIC (Staphylococcus aureus [8]) [µg/mL]	MIC (Enterococcus faecalis [9]) [µg/mL]	MIC (Escherichia coli [10]) [µg/mL]	MIC (Enterococcus faecalis [11]) [µg/mL]	MIC (Staphylococcus aureus [12]) [µg/mL]	MIC (Escherichia coli [13]) [µg/mL]	MIC (Staphylococcus aureus [14]) [µg/mL]	MIC (Staphylococcus aureus [15]) [µg/mL]	MIC [16] [µg/mL]	MIC (Staphylococcus aureus [17]) [µg/mL]	MIC [19] [µg/mL]	MIC [20] [µg/mL]	MIC (Staphylococcus aureus [21]) [µg/mL]	other results
C[C@H]1COc2c(N3CCN(C)CC3)c(F)cc3c(=O)c(C(=O)O)cn1c23.C[C@H]1COc2c(N3CCN(C)CC3)c(F)cc3c(=O)c(C(=O)O)cn1c23.O [LEVOFLOXACIN]	16	0.5	32	16	> 128	2	2	128	2	32	4	16	64	> 128	0.5	16	16	0.5	0.5	> 128	MIC [18]: 16 µg/mL
CO/N=C(\C(=O)N[C@@H]1C(=O)N2C(C(=O)[O-])=CCS[C@H]12)c1csc(N)n1.[Na+] [CEFTIZOXIME SODIUM]	32	> 128	4		64	> 128	> 128	128	> 128	1	> 128	4	32	64	4	128	2	32	64	128	MIC (Escherichia coli [22]): 4 µg/mL; MIC [18]: 128 µg/mL; MIC (Escherichia coli [23]): 4 µg/mL
CO[C@H]1/C=C/O[C@@]2(C)Oc3c(C)c(O)c4c(O)c(c(/C=N/N5CCN(C)CC5)c(O)c4c3C2=O)NC(=O)/C(C)=C\C=C\[C@H](C)[C@H](O)[C@@H](C)[C@@H](O)[C@@H](C)[C@H](OC(C)=O)[C@@H]1C [RIFAMPIN]	< 0.008	0.008 (≈ 0.00972 µM)	0.008 (≈ 0.00972 µM)	0.008 (≈ 0.00972 µM)	> 128	2 (≈ 2.43 µM)	4 (≈ 4.86 µM)	> 128	1 (≈ 1.22 µM)	2 (≈ 2.43 µM)	2 (≈ 2.43 µM)	< 0.008	2 (≈ 2.43 µM)	> 128	0.008 (≈ 0.00972 µM)		< 0.008	< 0.008	< 0.008	> 128	MIC (Escherichia coli [22]): 2 µg/mL (≈ 2.43 µM); MIC (Escherichia coli [23]): 2 µg/mL (≈ 2.43 µM)
